In ChEMBL document CHEMBL1153249, “Conversion of 4-cyanomethyl-pyrazole-3-carboxamides into CB1 antagonists with lowered propensity to pass the blood-brain-barrier” (Bioorg Med Chem Lett, 2010):
≈ marks a conversion by molar mass, not a printed value. Calls of active or inactive are those of the source. No cut-off for these calls is given here.

Tests used:
[1] = molecular target: T1, Cannabinoid receptor 1 (Homo sapiens, UniProt P21554); test: Inverse agonist activity at human CB1 receptor expressed in CHO-K1 cells by GTPgammaS binding assay; assay type: functional, cell-based
T1 sequence (P21554 whole entry): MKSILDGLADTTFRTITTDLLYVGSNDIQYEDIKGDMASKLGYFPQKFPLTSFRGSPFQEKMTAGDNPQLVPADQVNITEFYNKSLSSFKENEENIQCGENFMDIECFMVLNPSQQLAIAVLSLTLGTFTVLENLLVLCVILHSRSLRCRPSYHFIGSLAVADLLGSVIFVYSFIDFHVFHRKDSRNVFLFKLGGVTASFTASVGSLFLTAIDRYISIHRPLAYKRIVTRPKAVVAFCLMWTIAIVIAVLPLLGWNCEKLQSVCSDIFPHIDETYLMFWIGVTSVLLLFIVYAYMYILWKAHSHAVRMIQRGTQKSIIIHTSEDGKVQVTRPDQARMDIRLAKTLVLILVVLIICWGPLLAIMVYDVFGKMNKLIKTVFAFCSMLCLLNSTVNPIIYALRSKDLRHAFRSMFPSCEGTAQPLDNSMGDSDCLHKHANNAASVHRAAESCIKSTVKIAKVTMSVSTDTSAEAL

[2] = molecular target: T1, Cannabinoid receptor 1; test: Displacement of [3H]CP-55940 from human CB1 receptor expressed in CHO-K1 cells; assay type: cell-based
[3] = Solubility of the compound; assay type: physicochemical
[4] = Ratio of drug level in plasma to brain in mouse at 10 mg/kg, po after 6 hrs; assay type: ADME, organism-based; set-up: dose 10 mg/kg, route oral; conditions: in vivo
[5] = molecular target: T1, Cannabinoid receptor 1; assay type: functional, cell-based, CHO-K1
Description: Antagonist activity at human CB1 receptor expressed in CHO-K1 cells assessed as inhibition of CP-55940-induced GTPgammaS binding

[6] = Selectivity for human CB1 receptor over CB2 receptor by GTPgammaS binding assay
[7] = Lipophilicity, log D by chromatography; assay type: physicochemical
[8] = molecular target: T1, Cannabinoid receptor 1; test: biochemical; assay type: cell-based, COS-7
Description: Displacement of [3H]CP-55940 from human CB1 receptor expressed in COS7 cells

[9] = tested on: Mus musculus; test: Reduction in WIN-55212-induced hypothermia in mouse at 1 mg/kg po pretreated 40 mins prior to WIN-55212 challenge measured after 1 hr; assay type: functional, organism-based; set-up: dose 1 mg/kg
[10] = tested on: Mus musculus; test: Reduction in body weight in diet-induced obese mouse at 10 mg/kg, po; assay type: functional; set-up: scale not given: the % may be the effect or the level left
[11] = Ratio of drug level in plasma to brain in mouse at 10 mg/kg, po after 3 hrs; assay type: ADME, organism-based; set-up: dose 10 mg/kg, route oral; conditions: in vivo
[12] = Ratio of drug level in plasma to brain in rat at 5 mg/kg, po after 6 hrs; assay type: ADME, organism-based; set-up: dose 5 mg/kg, route oral; conditions: in vivo
[13] = Stability in rat microsomes assessed as compound remaining after 30 mins; assay type: ADME, Microsome; conditions: read-out: Stability
[14] = Oral bioavailability in rat; assay type: ADME, organism-based; conditions: in vivo
[15] = Bioavailability in ip dosed rat; assay type: ADME, organism-based; conditions: in vivo
[16] = Stability in mouse microsomes after 30 mins; assay type: ADME, Microsome; conditions: 0.5 h
[17] = Stability in rat microsomes after 30 mins; assay type: ADME, Microsome; conditions: 0.5 h
[18] = Ratio of drug level in plasma to brain in rat at 10 mg/kg, ip after 6 hrs; assay type: ADME, organism-based; set-up: dose 10 mg/kg, route intraperitoneal; conditions: in vivo
[19] = Oral bioavailability in mouse; assay type: ADME, organism-based; conditions: in vivo
[20] = tested on: Mus musculus; test: Reduction in WIN-55212-induced hypothermia in mouse at 10 mg/kg po pretreated 40 mins prior to WIN-55212 challenge measured after 1 hr; assay type: functional, organism-based; set-up: dose 10 mg/kg
[21] = Ratio of drug level in plasma to brain in po dosed diet-induced obese mouse after 6 hrs; assay type: ADME, organism-based; conditions: in vivo
[22] = tested on: Mus musculus; test: Reduction in body weight in diet-induced obese mouse at 3 mg/kg, po; assay type: functional; set-up: scale not given: the % may be the effect or the level left

Row | Structure (SMILES) | IC50 [1] | IC50 [2] | solubility ([3]; read-out: solubility) | IC50 [5] | chromatographic logD [7] | other results
1 | N#CCc1c(C(=O)NN2CCCCC2)nn(-c2ccccc2Cl)c1-c1ccc(Cl)cc1 | 1.8 nM |  |  |  |  | 
2 | NC(=O)Cc1c(C(=O)N2CCC(O)(c3ccccn3)CC2)nn(-c2ccccc2Cl)c1-c1ccc(Cl)cc1 | 2 nM | 1.9 nM | 400 µM (≈ 220 µg/mL) | 3.6 nM | 2.3 | Ratio [4]: 10.2; Selectivity ratio [6]: 1000
3 | N=C(N)Cc1c(C(=O)NN2CCOCC2)nn(-c2ccccc2Cl)c1-c1ccc(Cl)cc1 |  |  |  | 26 nM |  | 
4 | N#CN1CCC(CNC(=O)c2nn(-c3ccccc3Cl)c(-c3ccc(Cl)cc3)c2CC(N)=O)CC1 | 0.49 nM |  | 16 µM (≈ 8.18 µg/mL) | 0.66 nM | 2.9 | IC50 [8]: 0.34 nM
5 | Cc1c(C(=O)NN2CCCCC2)nn(-c2ccc(Cl)cc2Cl)c1-c1ccc(Cl)cc1 [RIMONABANT] |  |  |  |  |  | solubility [3]: 10 µM (≈ 4.64 µg/mL); Activity [9]: Active; Activity [10]: 14.5
6 | N=C(Cc1c(C(=O)NN2CCCCC2)nn(-c2ccccc2Cl)c1-c1ccc(Cl)cc1)NO | 1.3 nM |  |  | 1.8 nM |  | Ratio [11]: 1.2
7 | NC(=O)Cc1c(C(=O)NN2CCOCC2)nn(-c2ccccc2Cl)c1-c1ccc(Cl)cc1 | 1.7 nM | 7.9 nM |  | 7 nM | 1.8 | 
8 | Cc1ccncc1NC(=O)c1nn(-c2ccccc2Cl)c(-c2ccc(Cl)cc2)c1CC(N)=O | 1.7 nM | 0.55 nM | 200 µM (≈ 96.1 µg/mL) | 3 nM | 2.4 | Ratio [12]: 1.2; remaining at 0.5 h [13]: 63%; bioavailability [14]: 39%
9 | NC(=O)Cc1c(C(=O)NN2CCCCC2)nn(-c2ccccc2Cl)c1-c1ccc(Cl)cc1 | 0.82 nM | 1.8 nM | 4.5 µM (≈ 2.13 µg/mL) | 1.4 nM | 2.6 | remaining at 0.5 h [13]: 72%; bioavailability [14]: 2%
10 | N#Cc1ccc(N2CCN(C(=O)c3nn(-c4ccccc4Cl)c(-c4ccc(Cl)cc4)c3CC(N)=O)CC2)nc1 | 1.4 nM | 4.6 nM |  | 1.2 nM | 2.8 | 
11 | N=C(N)Cc1c(C(=O)NN2CCCCC2)nn(-c2ccccc2Cl)c1-c1ccc(Cl)cc1 | 0.4 nM |  |  | 0.93 nM |  | 
12 | N=C(Cc1c(C(=O)Nc2ccc(F)cc2)nn(-c2ccccc2Cl)c1-c1ccc(Cl)cc1)NO |  |  |  | 1.1 nM |  | 
13 | N=C(N)Cc1c(C(=O)Nc2ccc(F)cc2)nn(-c2ccccc2Cl)c1-c1ccc(Cl)cc1 |  |  |  | 1.5 nM |  | bioavailability [15]: 19%; Stability [16]: Stable; Stability [17]: Stable; Ratio [18]: 3.2
14 | NC(=O)Cc1c(C(=O)NC2CCN(C(=O)C3CC3)CC2)nn(-c2ccccc2Cl)c1-c1ccc(Cl)cc1 | 1.2 nM | 3.7 nM | 80 µM (≈ 43.2 µg/mL) |  | 2.3 | Ratio [4]: 6.1
15 | NC(=O)Cc1c(C(=O)N2CCC(c3ncccn3)CC2)nn(-c2ccccc2Cl)c1-c1ccc(Cl)cc1 | 0.3 nM | 1.4 nM | 1.1 µM (≈ 0.589 µg/mL) | 0.71 nM | 2.6 | 
16 | NC(=O)Cc1c(C(=O)N2CCC(C(=O)O)(c3ccccn3)CC2)nn(-c2ccccc2Cl)c1-c1ccc(Cl)cc1 | 10 nM | 23 nM | 425 µM (≈ 246 µg/mL) | 16 nM | 1.5 | 
17 | NC(=O)Cc1c(C(=O)N2CCC(O)(c3ccc(F)cc3)CC2)nn(-c2ccccc2Cl)c1-c1ccc(Cl)cc1 | 0.1 nM | 2.6 nM | 75 µM (≈ 42.6 µg/mL) | 0.19 nM | 2.8 | bioavailability [19]: 100%; Activity [20]: inactive; Ratio [21]: 13; Ratio [4]: 10.2; Activity [22]: 5.6%; Activity [10]: 15.1%; Selectivity ratio [6]: 1000; bioavailability [14]: 70%
18 | NC(=O)Cc1c(C(=O)N2CCC(O)(c3ccccc3)CC2)nn(-c2ccccc2Cl)c1-c1ccc(Cl)cc1 | 0.11 nM |  | 105 µM (≈ 57.7 µg/mL) | 0.26 nM | 2.7 | IC50 [8]: 2.9 nM
19 | NC(=O)Cc1c(C(=O)N2CCC(C(=O)O)(c3ccc(F)cn3)CC2)nn(-c2ccccc2Cl)c1-c1ccc(Cl)cc1 |  |  | 500 µM (≈ 298 µg/mL) | 30 nM | 1.6 | bioavailability [19]: 4%
20 | N=C(N)Cc1c(C(=O)NCc2ccc(F)cc2)nn(-c2ccccc2Cl)c1-c1ccc(Cl)cc1 | 0.79 nM |  |  | 1.2 nM |  | 
21 | N#CC1(c2ccccc2)CCN(C(=O)c2nn(-c3ccccc3Cl)c(-c3ccc(Cl)cc3)c2CC(N)=O)CC1 | 0.11 nM | 0.78 nM | 9 µM (≈ 5.03 µg/mL) | 0.23 nM | 3.4 | 
22 | N=C(N)Cc1c(C(=O)N2CCC(c3ncccn3)CC2)nn(-c2ccccc2Cl)c1-c1ccc(Cl)cc1 | 0.59 nM |  |  | 9.7 nM |  | 
23 | N=C(Cc1c(C(=O)N2CCC(c3ccccc3F)CC2)nn(-c2ccccc2Cl)c1-c1ccc(Cl)cc1)NO |  |  |  | 0.54 nM |  | 
24 | N#CCc1c(C(=O)N2CCC(c3ncccn3)CC2)nn(-c2ccccc2Cl)c1-c1ccc(Cl)cc1 |  |  |  | 3.8 nM |  | 
25 | NC(=O)Cc1c(C(=O)N2CCC(O)(c3ccc(F)cn3)CC2)nn(-c2ccccc2Cl)c1-c1ccc(Cl)cc1 | 2.1 nM |  | 290 µM (≈ 165 µg/mL) |  | 2.5 | IC50 [8]: 5.5 nM
26 | N=C(Cc1c(C(=O)NN2CCOCC2)nn(-c2ccccc2Cl)c1-c1ccc(Cl)cc1)NO |  |  |  | 51 nM |  | 
27 | N=C(N)Cc1c(C(=O)N2CCC(O)(c3ccc(F)cc3)CC2)nn(-c2ccccc2Cl)c1-c1ccc(Cl)cc1 |  |  |  | 1.9 nM |  | 
28 | N=C(Cc1c(C(=O)N2CCC(c3ncccn3)CC2)nn(-c2ccccc2Cl)c1-c1ccc(Cl)cc1)NO |  |  |  | 21 nM |  | 
29 | NC(=O)Cc1c(C(=O)N2CCC(c3ccccc3F)CC2)nn(-c2ccccc2Cl)c1-c1ccc(Cl)cc1 |  |  |  | 0.51 nM |  | 
